# Columns and labels:
# [1] = test system: bone marrow; assay: Bone marrow dosimetry, reference protocol (RP): sequential whole-body planar and quantitative SPECT images plus blood samples, organ-level S values; assay type: in vivo
# Protocol: (§1) Data for dosimetry were acquired during a routine 4-day in-patient stay following the radiopharmaceutical injection, in conjunction with standard clinical examinations. All patients received a 15-min one-bed abdominal SPECT scan and a 20-min whole-body planar scintigraphy at 24, 48, and 72 h post-injection (p. i.) on a dual-headed Symbia T2 SPECT/CT (Siemens Medical Solutions, Erlangen, Germany). Counts were detected for the photopeak window of 208 keV (width 15%) by the usage of a medium-energy low-penetration collimator. Two additional scatter windows were measured at 170 keV (width 15%) and 240 keV (width 10%). A low-dose AC-CT was acquired at the first image acquisition session for anatomical correlation and attenuation correction during quantitative SPECT reconstruction. For the determination of the absorbed dose to the bone marrow from the activity circulating in the blood, five venous blood samples were drawn from the site contralateral to injection at 30 and 80 min p. i. and 24, 48, and 72 h p. i..
# (§2) Quantitative SPECT images were reconstructed as described by Delker et al. via a rotation-based, penalised, one-step-late ordered subset expectation maximisation algorithm, which included corrections for scatter, attenuation, and distance-dependent geometrical collimator blur. Attenuation correction was performed for each SPECT scan via the AC-CT, which was acquired along with the SPECT scan 24 h post-injection. To apply the attenuation correction, especially to the SPECT scans 48 and 72 h p. i., the single AC-CT was co-registered onto an initial SPECT reconstruction without attenuation correction by using a rigid body co-registration algorithm with six degrees of freedom (PMOD Version 3.609, PMOD Technologies, Zurich, Switzerland). If only one AC-CT is acquired for sequential SPECT imaging, special care has to be taken to minimise misregistration between SPECT images and separately acquired CT scans, as such a misalignment can distort the proper attenuation correction and, thus, activity quantification. This is in principal also true for serial SPECT and CT imaging, as even within a single image acquisition session patient movements cannot be entirely avoided. Scatter correction employed the triple energy window (TEW) method. Correction for distance-dependent collimator blur made use of a Gaussian blur model. Corrections for partial volume effects and dead time were not applied. For conversion of the measured counts per second and per voxel to Becquerel per millilitre, an appropriate calibration factor was determined. Therefore, we used a large cylinder of approximately 20 cm diameter, which was filled with a known activity concentration and which has been imaged and reconstructed via the same protocol.
# For each patient, all acquired whole-body planar images were corrected for scatter and attenuation on a pixel basis via a dedicated MATLAB routine (Fig. 1); for the correction of scatter, the TEW method was applied, as for the quantitative SPECT images. For the attenuation correction, a linear projection of μ values along the ventral axis of the patient was created from the diagnostic CT image of the pre-therapeutic Ga-68 PET/CT scan, which covered nearly the whole patient body from the middle of the head to approximately the knees. Therefore, a conversion between the Hounsfield units (HUs) in the diagnostic CT and the μ values at 208 keV was established by acquiring a CT scan of a Gammex tissue phantom (Gammex 467; Gammex, Inc., Middleton, WI) with 16 tissue rods of known composition and thus known attenuation characteristics. The μ values of all rods were plotted against the measured HUs, and a bilinear fit model (range 1: HU = (− 688;0); range 2: HU = (0;1127)) was applied to the whole data set. This calibration curve allows for the assignment of μ values to a continuous range of HUs. […]
# [2] = Abdominal effective half-life from sequential quantitative SPECT (mono-exponential fit); assay type: in vivo
# Protocol: as §1, §2
# First, the abdominal effective decay constant λSPECT was derived via a mono-exponential fit to the total activity in the SPECT scans 24, 48, and 72 h post-therapy. Especially, all organs and all tumours were included in the fitting of the TAC, as it was the case for the determination of A~WB from the reference protocol. This effective decay constant λSPECT serves as a surrogate for the reference-protocol-based whole-body effective decay constant (Fig. 2). The mono-exponential SPECT-based abdominal TAC was then scaled with a chosen base point. This base point is defined via the whole-body activity AWB(t^∗) of a single whole-body planar image acquired at an arbitrary time point t^∗∈ 24, 48, or 72 h post-therapy. The resulting pseudo-whole-body TAC AWB, pseudo(t) is intended to serve as an estimate of the reference-protocol-based whole-body TAC (Eq. (7.1)) and can be further used to determine a pseudo-whole-body time-integrated activity A~WB,pseudo (Eq. (7.2)).
# [3] = median of n = 5 patients per therapy, approx. 7.4 GBq Lu-177-Octreotate (NET) or 3.7 GBq Lu-177-PSMA-617 (mCRPC)
# [4] = mono-exponential fit to total activity in abdominal SPECT 24, 48, 72 h p. i., median of n = 5 patients per therapy
compound,measurement,setting,value
"O=C(O)CC[C@H](NC(=O)N[C@@H](CCCCNC(=O)[C@H](Cc1ccc2ccccc2c1)NC(=O)[C@H]1CC[C@H](CNC(=O)CN2CCN(CC(=O)O)CCN(CC(=O)O)CCN(CC(=O)O)CC2)CC1)C(=O)O)C(=O)O [Lu-177-PSMA-617, Lu-177-DKFZ-PSMA-617, metal not drawn]","DBM ← total, total bone marrow absorbed dose, RP",[1]; [3],10.2 mGy/GBq
same,"DBM ← total, total bone marrow absorbed dose, RP","[1]; patient P6 (mCRPC, 3718 MBq)",10.2 mGy/GBq
same,"DBM ← total, total bone marrow absorbed dose, RP","[1]; patient P7 (mCRPC, 3743 MBq)",6.7 mGy/GBq
same,"DBM ← total, total bone marrow absorbed dose, RP","[1]; patient P8 (mCRPC, 3745 MBq)",16.8 mGy/GBq
same,"DBM ← total, total bone marrow absorbed dose, RP","[1]; patient P9 (mCRPC, 3752 MBq)",14.2 mGy/GBq
same,"DBM ← total, total bone marrow absorbed dose, RP","[1]; patient P10 (mCRPC, 3700 MBq)",8.3 mGy/GBq
same,"T1/2, SPECT, SPECT-based abdominal effective half-life",[2]; [4],42 h
same,"T1/2, SPECT, SPECT-based abdominal effective half-life","[2]; mono-exponential fit, abdominal SPECT 24, 48, 72 h p. i., patient P6 (mCRPC)",33 h
same,"T1/2, SPECT, SPECT-based abdominal effective half-life","[2]; mono-exponential fit, abdominal SPECT 24, 48, 72 h p. i., patient P7 (mCRPC)",50 h
same,"T1/2, SPECT, SPECT-based abdominal effective half-life","[2]; mono-exponential fit, abdominal SPECT 24, 48, 72 h p. i., patient P8 (mCRPC)",67 h
same,"T1/2, SPECT, SPECT-based abdominal effective half-life","[2]; mono-exponential fit, abdominal SPECT 24, 48, 72 h p. i., patient P9 (mCRPC)",31 h
same,"T1/2, SPECT, SPECT-based abdominal effective half-life","[2]; mono-exponential fit, abdominal SPECT 24, 48, 72 h p. i., patient P10 (mCRPC)",42 h
"C[C@@H](O)[C@H](NC(=O)[C@@H]1CSSC[C@H](NC(=O)[C@@H](Cc2ccccc2)NC(=O)CN2CCN(CC(=O)O)CCN(CC(=O)O)CCN(CC(=O)O)CC2)C(=O)N[C@@H](Cc2ccc(O)cc2)C(=O)N[C@H](Cc2c[nH]c3ccccc23)C(=O)N[C@@H](CCCCN)C(=O)N[C@@H]([C@@H](C)O)C(=O)N1)C(=O)O [Lu-177-Octreotate, Lu-177-[DOTA^0,Tyr^3]-Octreotate, metal not drawn]","DBM ← total, total bone marrow absorbed dose, RP",[1]; [3],12.1 mGy/GBq
same,"DBM ← total, total bone marrow absorbed dose, RP","[1]; patient P1 (NET, 7654 MBq)",12.1 mGy/GBq
same,"DBM ← total, total bone marrow absorbed dose, RP","[1]; patient P2 (NET, 7425 MBq)",9.6 mGy/GBq
same,"DBM ← total, total bone marrow absorbed dose, RP","[1]; patient P3 (NET, 7420 MBq)",15.6 mGy/GBq
same,"DBM ← total, total bone marrow absorbed dose, RP","[1]; patient P4 (NET, 7409 MBq)",11.8 mGy/GBq
same,"DBM ← total, total bone marrow absorbed dose, RP","[1]; patient P5 (NET, 7410 MBq)",12.7 mGy/GBq
same,"T1/2, SPECT, SPECT-based abdominal effective half-life",[2]; [4],61 h
same,"T1/2, SPECT, SPECT-based abdominal effective half-life","[2]; mono-exponential fit, abdominal SPECT 24, 48, 72 h p. i., patient P1 (NET)",53 h
same,"T1/2, SPECT, SPECT-based abdominal effective half-life","[2]; mono-exponential fit, abdominal SPECT 24, 48, 72 h p. i., patient P2 (NET)",61 h
same,"T1/2, SPECT, SPECT-based abdominal effective half-life","[2]; mono-exponential fit, abdominal SPECT 24, 48, 72 h p. i., patient P3 (NET)",56 h
same,"T1/2, SPECT, SPECT-based abdominal effective half-life","[2]; mono-exponential fit, abdominal SPECT 24, 48, 72 h p. i., patient P4 (NET)",73 h
same,"T1/2, SPECT, SPECT-based abdominal effective half-life","[2]; mono-exponential fit, abdominal SPECT 24, 48, 72 h p. i., patient P5 (NET)",87 h

# — PMC6081875 (EJNMMI Research, 2018)
